Measured values published in patent US11000033B2, “Ketone or oxime compound, and herbicide” (NISSAN CHEMICAL CORPORATION, priority 2014, dated 2021).

Key:
Type in all cases: in vivo
[1] = system: Digitaria ciliaris; assay: Test Example 4: herbicidal effect by soil treatment (symbol F)
Method in brief: (§1)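 Seeds were sown in sterilized diluvial soil, covered with about 1.5 cm of soil, and the soil surface was sprayed with a water-diluted emulsion of the compound at a predetermined rate. Plants grew in a greenhouse at 25° C. to 30° C.; effects were scored visually 3 weeks after application.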

[2] = system: Stellaria media; assay: Test Example 5: herbicidal effect by foliage application, plastic box (symbol P); details: 320 g/ha, 3 weeks after application
Method in brief: (§2)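 Greenhouse foliar test: seedlings at 14 days, grown 25° C. to 30° C. in sterilized diluvial soil; compound applied as an aqueous dilution of an emulsion; response read 3 weeks after spraying.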

[3] = system: Stellaria media; assay: Test Example 4: herbicidal effect by soil treatment (symbol P)
Method in brief: as §1

[4] = system: Lolium multiflorum Lam.; assay: Test Example 5: herbicidal effect by foliage application, plastic box (symbol K); details: 320 g/ha, 3 weeks after application
Method in brief: as §2

[5] = system: soybean; assay: Test Example 4: effect on crop by soil treatment (symbol d); details: for d: soybean, effect grade on crop: 320 g/ha; for d: soybean, effect on crop grade: application herbicide amount 320 g/ha
Method in brief: (§3)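 Crop seed is sown in spots together with several weed species in a box of sterilized diluvial soil. It is covered by about 1.5 cm of soil and kept in a greenhouse held between 25° C. and 30° C.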

[6] = system: rapeseed; assay: Test Example 4: effect on crop by soil treatment (symbol g); details: for g: rapeseed, effect grade on crop: 320 g/ha; for g: rapeseed, effect on crop grade: application herbicide amount 320 g/ha
Method in brief: as §3

[7] = system: Echinochloa oryzacola Vasing.; assay: Test Example 1: herbicidal activity, application before weed generation in submerged conditions (symbol A); details: application herbicide amount 320 g/ha
Method in brief: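 Pre-emergence, paddy conditions: emulsifiable formulation diluted in water, dosed onto floodwater (4 cm depth) on sowing day. Alluvial soil; weeds sown mixed; rice transplanted at 2.5-leaf stage. Greenhouse 25–30 °C, 3 wk. Score 0–5 (5 = ≥90% kill, 0 = ≤5%).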

[8] = system: Echinochloa crus-galli var. crus-galli; assay: Test Example 4: herbicidal effect by soil treatment (symbol H)
Method in brief: as §1

[9] = system: Chenopodium album; assay: Test Example 4: herbicidal effect by soil treatment (symbol O)
Method in brief: as §1

[10] = system: Monochoria vaginalis; assay: Test Example 2: herbicidal activity, application during weed generation in submerged conditions (symbol C); details: Table 23; application herbicide amount 320 g/ha; grade 0-5 by criteria of Test Example 1
Method in brief: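 Alluvial soil in pots was flooded to a 4 cm water depth and sown with a mix of the three weed species, then grown in a greenhouse at 25° C. to 30° C. At the one- to two-leaf stage, an emulsifiable formulation diluted in water to a set dose was applied to the water surface. Effects were scored visually 3 weeks later.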

[11] = system: Echinochloa crus-galli var. crus-galli; assay: Test Example 5: herbicidal effect by foliage application, plastic box (symbol H); details: 320 g/ha, 3 weeks after application
Method in brief: as §2

[12] = system: transplanted rice plant; assay: Test Example 1: effect on crop, application before weed generation in submerged conditions (symbol a); details: application herbicide amount 320 g/ha
Method in brief: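 Rice at 2.5 leaf stage transplanted into submerged soil (4 cm depth) sown with three weed species; herbicide applied before weed emergence.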

[13] = system: Veronica persica; assay: Test Example 4: herbicidal effect by soil treatment (symbol R)
Method in brief: as §1

[14] = system: Lolium multiflorum Lam.; assay: Test Example 4: herbicidal effect by soil treatment (symbol K)
Method in brief: as §1

[15] = system: rice; assay: Test Example 4: effect on crop by soil treatment (symbol b); details: for b: directly sowed rice plant, effect grade on crop: 320 g/ha; for b: directly sowed rice plant, effect on crop grade: application herbicide amount 320 g/ha
Method in brief: as §3

[16] = system: Apera spica-venti; assay: Test Example 5: herbicidal effect by foliage application, plastic box (symbol L); details: 320 g/ha, 3 weeks after application
Method in brief: as §2

[17] = system: Avena fatua; assay: Test Example 4: herbicidal effect by soil treatment (symbol I)
Method in brief: as §1

[18] = system: Apera spica-venti; assay: Test Example 4: herbicidal effect by soil treatment (symbol L)
Method in brief: as §1

[19] = application herbicide amount 320 g/ha

With `CON=C(C)CC1CC(OC(=O)c2ccccc2C(F)(F)F)=C(c2c(C)cc(C)cc2C)C1=O` (stereo not drawn) [1-154] the “F: Digitaria ciliaris, herbicidal effect grade” value (“F: Digitaria ciliaris” for short) ([1]; 320 g/ha) was 5 (Herbicidal ratio of 90% or more (almost completely withered)), the “P: Stellaria media, herbicidal effect (criteria 0-5)” value [2] was 2 (Herbicidal ratio of 20% or higher and lower than 40%) and the “P: Stellaria media, herbicidal effect grade” value ([3]; 320 g/ha) was 0 (Herbicidal ratio of 5% or lower (almost no effect)). For the same molecule, the “K: Lolium multiflorum Lam., herbicidal effect (criteria 0-5)” value [4] was 5 (Herbicidal ratio of 90% or more (almost completely withered)), the “d: soybean, effect grade on crop” value [5] was 0 (Herbicidal ratio of 5% or lower (almost no effect)) and the “g: rapeseed, effect grade on crop” value [6] was 4 (Herbicidal ratio of 70% or higher and lower than 90%). The “Herbicidal effect grade, A: Echinochloa oryzacola Vasing.” value [7] was 5 (Herbicidal ratio of 90% or more (almost completely withered)), the “H: Echinochloa crus-galli var. crus-galli, herbicidal effect grade” value ([8]; 320 g/ha) was 5 (Herbicidal ratio of 90% or more (almost completely withered)) and the “O: Chenopodium album, herbicidal effect grade” value (from here on “O: Chenopodium album”) ([9]; 320 g/ha) was 0 (Herbicidal ratio of 5% or lower (almost no effect)). For the same molecule, the “Herbicidal effect grade, C: Monochoria vaginalis” value (“Herbicidal effect grade, C” for short) [10] was 4 (Herbicidal ratio of 70% or higher and lower than 90%), the “H: Echinochloa crus-galli var. crus-galli, herbicidal effect (criteria 0-5)” value [11] was 5 (Herbicidal ratio of 90% or more (almost completely withered)) and the “Effect grade on crop, a: transplanted rice plant” value [12] was 5 (Herbicidal ratio of 90% or more (almost completely withered)). For the same molecule, the “R: Veronica persica, herbicidal effect grade” value (“R: Veronica persica” below) ([13]; 320 g/ha) was 0 (Herbicidal ratio of 5% or lower (almost no effect)), the “K: Lolium multiflorum Lam., herbicidal effect grade” value ([14]; 320 g/ha) was 5 (Herbicidal ratio of 90% or more (almost completely withered)) and the “b: directly sowed rice plant, effect grade on crop” value [15] was 5 (Herbicidal ratio of 90% or more (almost completely withered)). For the same molecule, the “L: Apera spica-venti, herbicidal effect (criteria 0-5)” value [16] was 5 (Herbicidal ratio of 90% or more (almost completely withered)), the “I: Avena fatua, herbicidal effect grade” value ([17]; 320 g/ha) was 0 (Herbicidal ratio of 5% or lower (almost no effect)) and the “L: Apera spica-venti, herbicidal effect grade” value ([18]; 320 g/ha) was 5 (Herbicidal ratio of 90% or more (almost completely withered)).

In the case of `Cc1cc(C)c(C2=C(O)CC(CC(=O)C3CCCC3)C2=O)c(C)c1` (stereo not drawn) [2-028], the “F: Digitaria ciliaris” value [1, 19] is reported as 4 (Herbicidal ratio of 70% or higher and lower than 90%), the “P: Stellaria media, herbicidal effect grade” value [2] is reported as 0 (Herbicidal ratio of 5% or lower (almost no effect)) and the “P: Stellaria media, herbicidal effect grade” value [3, 19] is reported as 0 (Herbicidal ratio of 5% or lower (almost no effect)). The “K: Lolium multiflorum Lam., herbicidal effect grade” value [4] was 5 (Herbicidal ratio of 90% or more (almost completely withered)), the “d: soybean, effect on crop grade” value [5] was 0 (Herbicidal ratio of 5% or lower (almost no effect)) and the “g: rapeseed, effect on crop grade” value [6] was 0 (Herbicidal ratio of 5% or lower (almost no effect)). For the same molecule, the “Herbicidal effect grade, A: Echinochloa oryzacola Vasing.” value [7] was 3 (Herbicidal ratio of 40% or higher and lower than 70%), the “H: Echinochloa crus-galli var. crus-galli, herbicidal effect grade” value [8, 19] was 1 (Herbicidal ratio of 5% or higher and lower than 20%) and the “O: Chenopodium album” value [9, 19] was 0 (Herbicidal ratio of 5% or lower (almost no effect)). For the same molecule, the “Herbicidal effect grade, C” value [10] was 0 (Herbicidal ratio of 5% or lower (almost no effect)), the “H: Echinochloa crus-galli var. crus-galli, herbicidal effect grade” value [11] was 5 (Herbicidal ratio of 90% or more (almost completely withered)) and the “Effect grade on crop, a: transplanted rice plant” value [12] was 3 (Herbicidal ratio of 40% or higher and lower than 70%). The “R: Veronica persica” value [13, 19] was 0 (Herbicidal ratio of 5% or lower (almost no effect)), the “K: Lolium multiflorum Lam., herbicidal effect grade” value [14, 19] was 5 (Herbicidal ratio of 90% or more (almost completely withered)) and the “b: directly sowed rice plant, effect on crop grade” value [15] was 5 (Herbicidal ratio of 90% or more (almost completely withered)). For the same molecule, the “L: Apera spica-venti, herbicidal effect grade” value [16] was 1 (Herbicidal ratio of 5% or higher and lower than 20%), the “I: Avena fatua, herbicidal effect grade” value [17, 19] was 0 (Herbicidal ratio of 5% or lower (almost no effect)) and the “L: Apera spica-venti, herbicidal effect grade” value [18, 19] was 2 (Herbicidal ratio of 20% or higher and lower than 40%).

For `CON=C(C)CC1CC(O)=C(c2c(C)cc(C)cc2OC)C1=O` (stereo not drawn) [6-037, 3-hydroxy-2-(2-methoxy-4,6-dimethylphenyl)-5-{2-(methoxyimino)propyl}cyclopent-2-enone], the “F: Digitaria ciliaris” value [1, 19] was 5 (Herbicidal ratio of 90% or more (almost completely withered)), the “P: Stellaria media, herbicidal effect grade” value [2] was 4 (Herbicidal ratio of 70% or higher and lower than 90%) and the “P: Stellaria media, herbicidal effect grade” value [3, 19] was 0 (Herbicidal ratio of 5% or lower (almost no effect)). For the same molecule, the “K: Lolium multiflorum Lam., herbicidal effect grade” value [4] was 5 (Herbicidal ratio of 90% or more (almost completely withered)), the “d: soybean, effect on crop grade” value [5] was 2 (Herbicidal ratio of 20% or higher and lower than 40%) and the “g: rapeseed, effect on crop grade” value [6] was 3 (Herbicidal ratio of 40% or higher and lower than 70%). The “Herbicidal effect grade, A: Echinochloa oryzacola Vasing.” value [7] was 5 (Herbicidal ratio of 90% or more (almost completely withered)), the “H: Echinochloa crus-galli var. crus-galli, herbicidal effect grade” value [8, 19] was 5 (Herbicidal ratio of 90% or more (almost completely withered)) and the “O: Chenopodium album” value [9, 19] was 0 (Herbicidal ratio of 5% or lower (almost no effect)). For the same molecule, the “Herbicidal effect grade, C” value [10] was 4 (Herbicidal ratio of 70% or higher and lower than 90%), the “H: Echinochloa crus-galli var. crus-galli, herbicidal effect grade” value [11] was 5 (Herbicidal ratio of 90% or more (almost completely withered)) and the “Effect grade on crop, a: transplanted rice plant” value [12] was 5 (Herbicidal ratio of 90% or more (almost completely withered)). The “R: Veronica persica” value [13, 19] was 1 (Herbicidal ratio of 5% or higher and lower than 20%), the “K: Lolium multiflorum Lam., herbicidal effect grade” value [14, 19] was 5 (Herbicidal ratio of 90% or more (almost completely withered)) and the “b: directly sowed rice plant, effect on crop grade” value [15] was 5 (Herbicidal ratio of 90% or more (almost completely withered)). For the same molecule, the “L: Apera spica-venti, herbicidal effect grade” value [16] was 5 (Herbicidal ratio of 90% or more (almost completely withered)), the “I: Avena fatua, herbicidal effect grade” value [17, 19] was 5 (Herbicidal ratio of 90% or more (almost completely withered)) and the “L: Apera spica-venti, herbicidal effect grade” value [18, 19] was 5 (Herbicidal ratio of 90% or more (almost completely withered)).

With `CON=C(C)CC1CC(OC(=O)c2ccc(C(F)(F)F)cc2)=C(c2c(C)cc(C)cc2C)C1=O` (stereo not drawn) [1-149] the “F: Digitaria ciliaris” value ([1]; 320 g/ha) was 5 (Herbicidal ratio of 90% or more (almost completely withered)), the “P: Stellaria media, herbicidal effect (criteria 0-5)” value [2] was 3 (Herbicidal ratio of 40% or higher and lower than 70%) and the “P: Stellaria media, herbicidal effect grade” value ([3]; 320 g/ha) was 0 (Herbicidal ratio of 5% or lower (almost no effect)). The “K: Lolium multiflorum Lam., herbicidal effect (criteria 0-5)” value [4] was 5 (Herbicidal ratio of 90% or more (almost completely withered)), the “d: soybean, effect grade on crop” value [5] was 0 (Herbicidal ratio of 5% or lower (almost no effect)) and the “g: rapeseed, effect grade on crop” value [6] was 4 (Herbicidal ratio of 70% or higher and lower than 90%). For the same molecule, the “Herbicidal effect grade, A: Echinochloa oryzacola Vasing.” value [7] was 5 (Herbicidal ratio of 90% or more (almost completely withered)), the “H: Echinochloa crus-galli var. crus-galli, herbicidal effect grade” value ([8]; 320 g/ha) was 5 (Herbicidal ratio of 90% or more (almost completely withered)) and the “O: Chenopodium album” value ([9]; 320 g/ha) was 0 (Herbicidal ratio of 5% or lower (almost no effect)). For the same molecule, the “Herbicidal effect grade, C” value [10] was 3 (Herbicidal ratio of 40% or higher and lower than 70%), the “H: Echinochloa crus-galli var. crus-galli, herbicidal effect (criteria 0-5)” value [11] was 5 (Herbicidal ratio of 90% or more (almost completely withered)) and the “Effect grade on crop, a: transplanted rice plant” value [12] was 5 (Herbicidal ratio of 90% or more (almost completely withered)). For the same molecule, the “R: Veronica persica” value ([13]; 320 g/ha) was 0 (Herbicidal ratio of 5% or lower (almost no effect)), the “K: Lolium multiflorum Lam., herbicidal effect grade” value ([14]; 320 g/ha) was 5 (Herbicidal ratio of 90% or more (almost completely withered)) and the “b: directly sowed rice plant, effect grade on crop” value [15] was 5 (Herbicidal ratio of 90% or more (almost completely withered)). For the same molecule, the “L: Apera spica-venti, herbicidal effect (criteria 0-5)” value [16] was 5 (Herbicidal ratio of 90% or more (almost completely withered)), the “I: Avena fatua, herbicidal effect grade” value ([17]; 320 g/ha) was 0 (Herbicidal ratio of 5% or lower (almost no effect)) and the “L: Apera spica-venti, herbicidal effect grade” value ([18]; 320 g/ha) was 5 (Herbicidal ratio of 90% or more (almost completely withered)).
